Experimental data: patent US20110150974A1, “Agent For Oral Mucosal Administration” (DAIICHI PHARMACEUTICAL CO., LTD., priority 2004, published 2011)
Counter-ions that a name gives are not always drawn.

How the values were obtained:
[1] = system: xerostomia caused by Sjogren's syndrome; settings: oral preparations, cited from earlier work
[2] = Drug distribution to each tissue in rats (oral mucosal vs oral administration); format: in vivo, Rats (male Wistar)
Procedure: Rats (9-week old male Wistar rats, body weight: 172 to 205 g) were fixed at the dorsal position under urethane (1.25 g/kg i.p.) anesthesia. The test preparation was administered, and plasma and tissues (minor salivary glands, stomach, small intestine, liver, kidney) were collected 0.5, 1, 2, 4 and 8 hours later for observation of the condition of the application site of the preparation and measurement of the concentration in each tissue. The surface of the minor salivary glands was rinsed with physiological saline, and contents were removed from the stomach and the small intestine, which were rinsed in physiological saline. Each collected tissue was stored at −40° C. before the measurement. The medicament concentration in each tissue was measured by LC/MS/MS.

Human Oral Mucosa = assay: Influences of pH and additives on drug absorption from human oral mucosa (gargle test); format: in vivo; settings: healthy volunteers, FIG. 2
Procedure: Healthy volunteers were made to clean their teeth and then gargle with 10 mL of each test solution (Examples 1 to 4) for 2 minutes, the gargles were collected, and then the oral cavity was washed twice with 10 mL of distilled water for 10 seconds. All the mouth wash was added to the test solution after gargling. The amounts of cevimeline hydrochloride in the test solutions before and after the gargling were measured by HPLC, and the difference between the samples was calculated as the amount of absorption to the oral mucosa.

In the case of `CC1OC2(CS1)CN1CCC2CC1` (racemic) [cevimeline hydrochloride hydrate, (±)-cis-2-methylspiro(1,3-oxathiolane-5,3′-quinuclidine) monohydrochloride monohydrate], the “saliva secretion promoting effect” value ([1]; JP 61-280497 and 06-024981) is listed as “confirmed”, the “adverse reactions in the digestive system” value ([1]; may cause) is listed as “nausea, abdominal pain, and vomiting” and the “mucosal irritancy at the application site” value ([2]; oral mucosal administration (patch of Example 9)) is listed as “no mucosal irritancy was observed”. The “drug concentration in the stomach” value ([2]; oral mucosal administration (patch of Example 9) compared with oral administration, 0.5-8 hours, FIG. 5) was “lower”, the “drug concentration in the small intestine” value ([2]; oral mucosal administration (patch of Example 9) compared with oral administration, 0.5-8 hours, FIG. 6) was “lower” and the “drug concentration in the kidney” value ([2]; oral mucosal administration (patch of Example 9) compared with oral administration, 0.5-8 hours, FIG. 8) was “lower”. For the same molecule, the “drug concentration in the liver” value ([2]; oral mucosal administration (patch of Example 9) compared with oral administration, 0.5-8 hours, FIG. 9) was “lower”, the plasma concentrations ([2]; oral mucosal administration (patch of Example 9) compared with oral administration, changed less in the initial period, FIG. 10) was “remained constantly low” and the “concentrations in the minor salivary glands” value ([2]; oral mucosal administration (patch of Example 9), FIG. 11) was “markedly high”. For the same molecule, the “medicament concentrations in the stomach, small intestine, kidney and liver in the initial period after administration” value ([2]; oral mucosal administration (patch of Example 9), up to 2 hours) was “apparently low”, the “amount of absorption to the oral mucosa” value (Human Oral Mucosa; pH 8.0, triethanolamine/hydrochloric acid buffer compared with McIlvaine buffer, gargle 10 mL for 2 minutes) was “larger” and the “amount absorbed from oral mucosa” value (Human Oral Mucosa; pH 8.0 compared with pH 6.0, gargle) was “more”. For the same molecule, the oral mucosal absorbability (Human Oral Mucosa; triethanolamine concentration of 1.5% compared with 0.3%, pH 8.0, gargle) was “better”.
